Like-named read-outs stand apart in the source and are kept apart here. Each block holds one molecule with its values, some of them ahead of it.
Assays:
NIC 60 cell line screen = conditions: cited from earlier work
PKC [1] = conditions: cited from earlier work; for Ki: A-ring bryologs, read-out: affinity for PKC
PKC [2] = test: PKC activation over time in H19-7/IGF-IR hippocampal cells; assay type: cell-based, rat
Protocol: (§1) Cell culture. Rat hippocampal H19-7/IGF-IR cells (ATCC, Manassas, Va.) were plated onto poly-L-lysine coated plates and grown at 35° C. in DMEM/10% FCS for several days until about 50% coverage was obtained. The cells were then induced to differentiate into a neuronal phenotype by replacing the medium with 5 ml N2 medium containing 10 ng/ml basic fibroblast growth factor at 39° C. and grown in T-75 flasks at 37° C. Human SH-SY5Y neuroblastoma cells (ATCC) were cultured in 45% F12K/45% MEM/10% FCS. Mouse N2A neuroblastoma cells were cultured in DMEM/10% FCS without glutamine. Rat hippocampal neurons from 18-day-old embryonic Sprague Dawley rat brains were plated on 12- or 96-well plates coated with poly-D-lysine (Sigma-Aldrich, St. Louis, Mo.) in B-27 neurobasal medium containing 0.5 mM glutamine and 25 μM glutamate (Invitrogen, Carlsbad, Calif.) and cultured for three days in the medium without glutamate. The neuronal cells were grown under 5% CO2 in an incubator maintained at 37° C. for 14 days.
Protein kinase C assay. Rat hippocampal cells were cultured and scraped in 0.2 ml homogenization buffer (20 mM Tris-HCl, pH 7.4, 50 mM NaF, 1 μg/ml leupeptin, and 0.1 mM PMSF) and homogenized by sonication a Marsonix microprobe sonicator (5 sec, 10W). To measure PKC, 10 μl of cell homogenate or purified PKC isozyme (purchased from Calbiochem) was incubated for 15 min at 37° C. in the presence of 10 μM histones, 4.89 mM CaCl2, 1.2 μg/μl phosphatidyl-L-serine, 0.18 μg/μl 1,2-dioctanoyl-sn-glycerol, 10 mM MgCl2, 20 mM HEPES (pH 7.4), 0.8 mM EDTA, 4 mM EGTA, 4% glycerol, 8 μg/ml aprotinin, 8 μg/ml leupeptin, and 2 mM benzamidine. 0.5 Ci [^γ32P]ATP was added and ^32P-phosphoprotein formation was measured by adsorption onto phosphocellulose as described previously. Nelson and Alkon, J. Neurochemistry (1995), vol. 65, pp. 2350-2357. For measurements of activation by BR-101 (DCP-LA) and similar compounds. PKC activity was measured in the absence of diacylglycerol and phosphatidylserine and PKC δ, ε, η, and μ were measured in the absence of added EGTA and CaCl2, as described by Kanno et al. (J. Lipid Res. 2006, vol. 47, pp. 1146-1150). Low concentrations of Ca^2+ are used because high Ca^2+ interacts with the PKC phosphatidylserine binding site and prevents activation. For measurements of bryostatin activation, 1,2-diacylglycerol was omitted unless otherwise stated.

PKCε = biological target: T1, PKCε (Homo sapiens, UniProt Q02156); test: PKC assay with purified PKCε; assay type: biochemical; conditions: for effect on purified PKCε (FIG. 7, FIG. 8): preincubated five minutes, radiometric
T1 construct: purchased Calbiochem
T1 sequence (Q02156 1-737): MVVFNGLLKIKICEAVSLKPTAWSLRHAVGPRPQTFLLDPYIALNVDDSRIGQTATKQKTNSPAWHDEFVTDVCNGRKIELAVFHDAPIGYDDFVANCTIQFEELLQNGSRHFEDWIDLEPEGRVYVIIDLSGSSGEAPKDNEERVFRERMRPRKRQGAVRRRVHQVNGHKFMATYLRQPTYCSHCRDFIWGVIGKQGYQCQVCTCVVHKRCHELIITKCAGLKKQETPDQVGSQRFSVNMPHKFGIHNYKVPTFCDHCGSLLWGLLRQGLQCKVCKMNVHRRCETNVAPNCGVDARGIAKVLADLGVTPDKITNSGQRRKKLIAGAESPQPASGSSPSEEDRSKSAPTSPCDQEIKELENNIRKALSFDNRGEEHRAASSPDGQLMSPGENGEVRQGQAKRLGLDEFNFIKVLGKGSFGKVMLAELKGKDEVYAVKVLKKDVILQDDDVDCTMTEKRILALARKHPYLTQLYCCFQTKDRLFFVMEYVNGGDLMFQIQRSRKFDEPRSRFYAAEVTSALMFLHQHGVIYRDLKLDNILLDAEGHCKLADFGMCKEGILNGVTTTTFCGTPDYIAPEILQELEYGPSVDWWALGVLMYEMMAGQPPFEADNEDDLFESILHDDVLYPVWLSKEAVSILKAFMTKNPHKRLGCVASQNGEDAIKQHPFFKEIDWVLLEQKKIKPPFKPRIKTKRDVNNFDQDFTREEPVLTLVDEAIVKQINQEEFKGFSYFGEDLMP
Protocol: PKC assay. […] 0.5 micro Ci[^γ32P]ATP was added. […] The reaction was stopped by spotting the reaction mixtures on 1×2 cm strips of cellulose phosphate paper (Whatman P81) and immediately washing twice for 1 hr in 0.5% H3PO4. The cellulose phosphate strips were counted in a scintillation counter. In some experiments, phosphatidylserine, diacylglycerol, and/or calcium were removed. […]
To determine their PKC isozyme specificity, fatty acid derivatives were preincubated with purified PKC for five minutes and the PKC activity was measured radiometrically.

[3] = tested on: Endothelin-converting enzyme (ECE); test: Endothelin-converting enzyme (ECE) activity in neuroblastoma cells; assay type: cell-based, human; conditions: bryostatin 0.27 nM, BR-101 1 μM, BR-111 1 μM
Protocol: ECE assay. […] neuroblastoma cells were incubated with bryostatin (0.27 nM), BR-101 (DCP-LA) (1 μM), and BR-111 (DHA-CP6) (1 μM). Endothelin-converting enzyme (ECE) was measured fluorimetrically using the method of Johnson and Ahn (Anal. Biochem. (2000), vol. 286, pp. 112-118). A sample of cell homogenate (20 μl) was incubated in 50 mM MES-KOH, pH 6.0, 0.01% C12E10 (polyoxyethylene-10-lauryl ether), and 15 μM McaBK2 (7-Methoxycoumarin-4-acetyl [Ala7-(2,4-Dinitrophenyl)Lys9]-bradykinin trifluoroacetate salt) (Sigma-Aldrich). After 60 min at 37° C., the reaction was quenched by adding trifluoroacetic acid to 0.5%. The sample was diluted to 1.4 ml with water and the fluorescence was measured at ex=334 nm, em=398 nm.

Aβ = Aβ production in N2a neuroblastoma cells transfected with human APPSwe/PSID; assay type: cell-based, mouse; conditions: 24 hours, various concentrations
Protocol: as §1
(§2) Aβ Measurement and Cell Viability Assay. Aβ was measured using an Aβ 1-42 human fluorimetric ELISA kit (Invitrogen) according to the manufacturer's instructions. Results were measured in a Biotek Synergy HT microplate reader. AlamarBlue and CyQuant NF (Invitrogen) according to the manufacturer's instructions.
To measure the effects of PKCε activation on Aβ production, mouse neuro2a (N2a) neuroblastoma cells transfected with human APPSwe/PSID were used, which produce large quantities of Aβ. Petanceska et al., J. Neurochem. (1996), vol. 74, pp. 1878-1884. […] With bryostatin, which activates PKC by binding to the diacylglycerol-binding site, the inhibition was biphasic with concentrations of 20 nM or higher producing no net effect. This may be explained by the ability of this class of PKC activators to downregulate PKC when used at high concentrations.

TACE = TACE activity in neuronal cells; assay type: cell-based, human, mouse; conditions: SH-SY5Y cells, N2a cells, primary neurons from rat hippocampus
Protocol: TACE Assay. TACE was measured by incubating 5 μl cell homogenate, 3 μl buffer (50 mM Tris-HCl 7.4 plus 25 mM NaCl plus 4% glycerol), and 1 μl of 100 μM TACE substrate (Aβz-[…]-DPa) (Calbiochem) for 20 min at 37° C. 1.5-ml polypropylene centrifuge tubes. Jin et al., Anal. Biochem. (2002), vol. 302, pp. 269-275. The reaction was stopped by cooling to 4° C. The samples were diluted to 1 ml and the fluorescence was rapidly measured (ex=320 nm, em=420 nm) in a Spex Fluorolog 2 spectrofluorometer.

[4] = tested on: SH-SY5Y neuroblastoma cells; test: Cell survival and proliferation (alamar Blue, CyQuant); assay type: cell-based, human; conditions: alamar Blue and CyQuant staining
Protocol: as §2

α-secretase = conditions: cited from earlier work
PKC [5] = conditions: competition with [3H] phorbol dibutyrate; cited from earlier work

Molecule: CC1=CC[C@H](C)C(C)(C)[C@@H]1/C=C/C(C)=C/CC[C@@]1(CO)[C@H](CCCO)/C(=C(/C)C=O)CC[C@]1(C)O [Iripallidal]
- GI50 (concentration required to inhibit growth by 50%) (NIC 60 cell line screen): micromolar to nanomolar range

Molecule: CCCCCCCC(=O)OC1C(=CC(=O)OC)CC2CC(CO)OC(=O)CC(O)CCOC(CCCc3ccc(Br)cc3)CC3CCOC(C=CC(C)(C)C1(O)O2)O3 (stereo not drawn) [bryolog 5]
- Ki (PKC [1]): 1.9 nM

Molecule: CCCCCCCCCCCCCC(=O)O[C@@H]1[C@@H](C)[C@@]2(O)[C@@H](C=C(CO)C[C@]3(O)C(=O)C(C)=C[C@@H]23)[C@@H]2C(C)(C)[C@]12OC(C)=O [PMA, phorbol 12-myristate 13-acetate]
- PKC activity at 8 hours (downregulation) (PKC [2]; data not shown): strongly downregulated

Molecule: CCCCCC1OC1C/C=C\CCCCCCCC(=O)OC (stereo in doubt) [BR-117, vernolic acid methyl ester]
- effect on purified PKCε (FIG. 7, FIG. 8) (PKCε): little or no effect

- effect on purified PKCε (FIG. 7, FIG. 8) (PKCε): little or no effect
Molecule: epoxystearic acid [BR-116]

Molecule: CCCCCCCC(=O)OC1C(=CC(=O)OC)CC2CC(CO)OC(=O)CC(O)CCOC(c3ccccc3)CC3CCOC(C=CC(C)(C)C1(O)O2)O3 (stereo not drawn) [bryolog 4]
- Ki (PKC [1]): 2.3 nM

Molecule: CCCCCCCC(=O)OC1C(=CC(=O)OC)CC2CC(CO)OC(=O)CC(O)CCOC(C(C)(C)C)CC3CCOC(C=CC(C)(C)C1(O)O2)O3 (stereo not drawn) [bryolog 3]
- Ki (PKC [1]): 6.5 nM

Molecule: CCC/C=C/C=C/C(=O)O[C@H]1/C(=C/C(=O)OC)C[C@H]2C[C@H]([C@@H](C)O)OC(=O)C[C@H](O)C[C@@H]3C[C@H](OC(C)=O)C(C)(C)[C@](O)(C[C@@H]4C/C(=C/C(=O)OC)C[C@H](/C=C/C(C)(C)[C@]1(O)O2)O4)O3 [Bryostatin-1]
- PKC downregulation following activation (PKC [2]; 0.04 nM and 0.2 nM): 20%
- time of return of PKC to baseline (PKC [2]; 0.04 nM and 0.2 nM): ≤ 24 h
- PKC activation (PKC [2]; 0.04 nM and 0.2 nM, data not shown): 2 fold
- PKC activity at 8 hours (downregulation) (PKC [2]; data not shown): at or near the baseline
- ECE activity [3]: sustained increase
- levels of intracellular Aβ (Aβ): markedly reduced
- levels of secreted Aβ (Aβ): markedly reduced
- TACE activity (TACE): small increases
- effect on cell survival [4]: no effect
- increase of initial rate of α-secretase activity (α-secretase; 10 μM): 16 fold
- increase of initial rate of α-secretase activity (α-secretase; 100 μM): 132 fold

- concentration needed to activate PKC, times lower than for BR-101 (DCP-LA) (PKCε): approximately 100 times
- effect on purified PKCε (FIG. 7, FIG. 8) (PKCε): activated
Molecule: CCC1CC1CC1CC1CC1CC1CC1CC1CC1CC1CCCC(=O)OC (stereo not drawn) [BR-114]

- effect on purified PKCε (FIG. 7, FIG. 8) (PKCε): little or no effect
Molecule: CCC1CC1CC1CC1CC1CC1CCCCCCCCO (stereo not drawn) [BR-104, linolenic alcohol tricyclopropane]

Molecule: CC1=C[C@]23C(=O)[C@@H](C=C(COC(=O)c4ccccc4)[C@@H](O)[C@]2(O)[C@H]1OC(=O)c1ccccc1)[C@H]1[C@@H](C[C@H]3C)C1(C)C [Ingenol 3,20-dibenzoate]
- Ki (PKC [5]): 240 nM

- concentration needed to activate PKC, times lower than for BR-101 (DCP-LA) (PKCε): approximately 100 times
- effect on purified PKCε (FIG. 7, FIG. 8) (PKCε): activated
Molecule: CCCCCC1CC1CC1CC1CC1CC1CC1CC1CCCC(=O)OC (stereo not drawn) [BR-115, methyl 4-(2-((2-((2-((-pentylcyclopropyl)methyl)cyclopropyl)methyl)cyclopropyl)methyl)cyclopropyl)butanoate methyl ester]

- concentrations at which PKCε is inhibited (PKCε): above 1 μM
Molecule: CCCCC[C@H]1O[C@H]1CC1CC1CCCCCCCC(=O)OC (stereo partly drawn) [BR-109, vernolic acid methyl ester cyclopropane]

Molecule: CCCCCC1CC1CC1CC1CCCCCCCCO (stereo not drawn) [BR-105, linoleic alcohol dicyclopropane]
- effect on purified PKCε (FIG. 7, FIG. 8) (PKCε): little or no effect
